Legend:
[1] = animal tests; isolated from Clausena Pentaphylla (Roxb.); cited from earlier work
CCl4 intoxicated mice = assay: Hepatoprotective action in CCl4 intoxicated mice (SGPT); format: in vivo, Male Kunming strain mice
Description: Male Kunming strain mice weighing 18-22 grams were used throughout the experiments. The compounds to be tested were suspended in 5% Tween 80 and given orally by gavage. The vehicle of 5% Tween 80 solution was administered to control mice via the same route. In in vitro experiments, the compounds were dissolved in dimethylformamide and added directly into the incubation mixture.
Mice were divided into several groups. The control group was administered the vehicle. The other groups were given two doses (250 mg/kg) of compound (I, R=H), at an interval of 8 h, respectively. 10 ml/kg of 0.1% CCl4 in vegetable oil was injected ip 24 h after the second administration of the compound. The mice were fasted for 16 h and sacrificed by decapitation. SGPT and liver lipids were determined. A piece of liver was processed into sections for pathological observation.

[2] = system: retrograde amnesia (rat) under hypoxic conditions; assay: Retrograde amnesia under hypoxic conditions (passive avoidance, dark compartment, foot shock); format: in vivo, Male rats; conditions: 100 mg/kg p.o.; 3.8% oxygen and 96.2% nitrogen; retest after 24 hours; groups of 15
Description: Influence of the compound (I, R=H) on retrograde amnesia (rat) under hypoxic conditions.
The apparatus (39 cm long, 21 cm high, and 21 cm wide) consists of two compartments, one made of translucent plastic (29 cm long) and the other one painted black (10 cm long). It has a bottom of spaced metal grids which are connected to a stimulating device delivering 1.6 mA for 20 s.
Both compartments are connected via a door which can be closed.
Male rats (100-120 g body weight) will be placed individually in the large compartment and allowed to explore both compartments for 3 min.
Thereafter, the animals are placed in the small (dark) compartment, the connecting door is closed and the foot shock is delivered. After that the animals are put in an air-tight cage which is perfused by a gas mixture containing 3.8% oxygen and 96.2% nitrogen.
24 hours later the rats are placed again in the bright compartment. The observation time is 3 min.
One experiment is performed in three groups of 15 animals each:
Group A: control group, not exposed to hypoxia
Group B: control group, receiving hypoxia after first training
Group C: treated animals, receiving hypoxia after first training
Evaluation: the times the animals need to enter the dark compartment are measured in seconds. […]
The time difference between the control group B and the treated group C is calculated in percent (C-B=X%). […]

| Structure (SMILES) | spasmolytic activity (in words) [1] | SGPT, X ± SE (CCl4 intoxicated mice; 250 mg/kg × 2, 8 h interval, oral by gavage, 10 ml/kg of 0.1% CCl4 ip 24 h after second dose, 9 per group, control 2270 ± 284, P <0.01) [unit %] | effect on elevated SGPT (in words) (CCl4 intoxicated mice; mice intoxicated with CCl4) | X, antiamnestic effect (C-B, with A-B=100%) [2] [%] |
| --- | --- | --- | --- | --- |
| C=CC(C)(C)c1cc2cc3c(cc2oc1=O)OC1(C)CCC(C(C)(C)O)OC1C3 (stereo not shown) [Clausmarins A] | showed spasmolytic activity |  |  |  |
| CN1C=Cc2ccccc2C(c2ccccc2)C(O)C1=O (stereo not shown) [Compound (I, R = H)] |  | 617 ± 166 | significantly decreased the elevated SGPT | 34 |
